Target: T1, Human OTUB1 wild-type (Homo sapiens, UniProt Q96FW1)
T1 construct: His tag (N); made in house; host or cells: E. coli BL21-CodonPlus (DE3)-RIPIL
Test: Covalent modification of OTUB1 (adduct formation), mass spectrometry-based assay (OTUB1 covalent binders; selected CFTR or cGAS based bivalent compounds)
Format: binding
Conditions: covalent adduct formation with OTUB1 protein
Method in brief: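 His-tagged human OTUB1 (10 μM), E. coli-expressed, incubated with compound (2500 μM) in 50 mM Tris-HCl pH 7.5, 150 mM NaCl, 0.5 mM TCEP for 1 h at room temperature. Adduct detected by intact-protein LC/ESI-TOF mass spectrometry after buffer exchange; duplicates.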

T1 sequence (Q96FW1 whole entry): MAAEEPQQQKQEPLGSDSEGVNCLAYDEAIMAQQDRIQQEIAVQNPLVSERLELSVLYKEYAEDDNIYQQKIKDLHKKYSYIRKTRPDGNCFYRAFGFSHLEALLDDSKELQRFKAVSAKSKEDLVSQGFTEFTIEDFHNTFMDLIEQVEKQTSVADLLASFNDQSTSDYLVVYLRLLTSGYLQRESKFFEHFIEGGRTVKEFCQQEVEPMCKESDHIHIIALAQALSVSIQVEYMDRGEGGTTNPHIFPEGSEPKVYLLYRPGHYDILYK

Structure (SMILES)	% of OTUB1 modified
CC(=O)Nc1ccc2sc(C(=O)N3CC4CC(C3)N4C(=O)/C=C/CN(C)C)cc2c1 [XS190-59, (E)-N-(2-(6-(4-(dimethylamino)but-2-enoyl)-3,6-diazabicyclo[3.1.1]heptane-3-carbonyl)benzo[b]thiophen-5-yl)acetamide]	92%
CC(=O)N1CCc2sc(C(=O)N3CC4CC(C3)N4C(=O)/C=C/CN(C)C)cc2C1 [XS190-69, (E)-1-(3-(5-acetyl-4,5,6,7-tetrahydrothieno[3,2-c]pyridine-2-carbonyl)-3,6-diazabicyclo[3.1.1]heptan-6-yl)-4-(dimethylamino)but-2-en-1-one]	88%
CC(=O)N1CCc2sc(N3CC4CCC(C3=O)N4C(=O)/C=C/CN(C)C)cc2C1 (centres unmarked) [XS190-70, (E)-3-(5-acetyl-4,5,6,7-tetrahydrothieno[3,2-c]pyridin-2-yl)-8-(4-(dimethylamino)but-2-enoyl)-3,8-diazabicyclo[3.2.1]octan-2-one]	97%
Cc1ccc(C(=O)N2CC3CCC2CN3C(=O)/C=C/CN(C)C)s1 (centres unmarked) [XS190-77, (E)-4-(dimethylamino)-1-(5-(5-methylthiophene-2-carbonyl)-2,5-diazabicyclo[2.2.2]octan-2-yl)but-2-en-1-one]	7%
Cc1ccc(C(=O)N2C[C@@H]3C[C@H]2CN3C(=O)/C=C/CN(C)C)s1 [XS190-80, (E)-4-(dimethylamino)-1-((1S,4S)-5-(5-methylthiophene-2-carbonyl)-2,5-diazabicyclo[2.2.1]heptan-2-yl)but-2-en-1-one]	7%
Cc1ccc(C(=O)N2C[C@H]3C[C@@H]2CN3C(=O)/C=C/CN(C)C)s1 [XS190-81, (E)-4-(dimethylamino)-1-((1R,4R)-5-(5-methylthiophene-2-carbonyl)-2,5-diazabicyclo[2.2.1]heptan-2-yl)but-2-en-1-one]	10%
CN(C)C/C=C/C(=O)N1C2CC1CN(C(=O)c1ccccc1)C2 [XS190-126, (E)-1-(3-benzoyl-3,6-diazabicyclo[3.1.1]heptan-6-yl)-4-(dimethylamino)but-2-en-1-one]	49%
Cc1ccc(C(=O)NCC2CCN2C(=O)/C=C/CN(C)C)s1 (centres unmarked) [XS190-127, (E)-N-((1-(4-(dimethylamino)but-2-enoyl)azetidin-2-yl)methyl)-5-methylthiophene-2-carboxamide]	15%
CN(C)C/C=C/C(=O)N1C2CC1CN(C(=O)C1CCCC1)C2 [XS190-128, (E)-1-(3-(cyclopentanecarbonyl)-3,6-diazabicyclo[3.1.1]heptan-6-yl)-4-(dimethylamino)but-2-en-1-one]	47%
CN(C)C/C=C/C(=O)N1C2CC1CN(C(=O)C1CCCCC1)C2 [XS190-129, (E)-1-(3-(cyclohexanecarbonyl)-3,6-diazabicyclo[3.1.1]heptan-6-yl)-4-(dimethylamino)but-2-en-1-one]	48%
CC(=O)NCc1ccc(C(=O)N2CC3CC(C2)N3C(=O)/C=C/CN(C)C)s1 [XS190-130, (E)-N-((5-(6-(4-(dimethylamino)but-2-enoyl)-3,6-diazabicyclo[3.1.1]heptane-3-carbonyl)thiophen-2-yl)methyl)acetamide]	53%
Cc1ocnc1C(=O)N1CC2CC(C1)N2C(=O)/C=C/CN(C)C [XS190-137, (E)-4-(dimethylamino)-1-(3-(5-methyloxazole-4-carbonyl)-3,6-diazabicyclo[3.1.1]heptan-6-yl)but-2-en-1-one]	20%
COCc1ccc(C(=O)N2CC3CC(C2)N3C(=O)/C=C/CN(C)C)s1 [XS190-138, (E)-4-(dimethylamino)-1-(3-(5-(methoxymethyl)thiophene-2-carbonyl)-3,6-diazabicyclo[3.1.1]heptan-6-yl)but-2-en-1-one]	45%
CN(C)C/C=C/C(=O)N1C2CCC1C(=O)N(C1CCCC1)C2 (centres unmarked) [XS190-144, (E)-3-cyclopentyl-8-(4-(dimethylamino)but-2-enoyl)-3,8-diazabicyclo[3.2.1]octan-2-one]	80%
Cc1ccc(C(=O)N2CC3CC(C2)N3C(=O)/C=C/CN(C)C)o1 [XS190-157, (E)-4-(dimethylamino)-1-(3-(5-methylfuran-2-carbonyl)-3,6-diazabicyclo[3.1.1]heptan-6-yl)but-2-en-1-one]	80%
Cc1ccc(CN2CC3CC(C2)N3C(=O)/C=C/CN(C)C)s1 [XS190-158, (E)-4-(dimethylamino)-1-(3-((5-methylthiophen-2-yl)methyl)-3,6-diazabicyclo[3.1.1]heptan-6-yl)but-2-en-1-one]	8%
CC1CCC(C(=O)N2CC3CC(C2)N3C(=O)/C=C/CN(C)C)C1 (centres unmarked) [XS190-170, (E)-4-(dimethylamino)-1-(3-(3-methylcyclopentane-1-carbonyl)-3,6-diazabicyclo[3.1.1]heptan-6-yl)but-2-en-1-one]	55%
Cc1cccc(N2CC3CCC(C2=O)N3C(=O)/C=C/CN(C)C)n1 (centres unmarked) [XS190-181, (E)-8-(4-(dimethylamino)but-2-enoyl)-3-(6-methylpyridin-2-yl)-3,8-diazabicyclo[3.2.1]octan-2-one]	30%

Structure (SMILES)	% of OTUB1 modified
Cc1cccc(N2CC3CCC(C2=O)N3C(=O)/C=C/CN(C)C)c1 (centres unmarked) [XS190-182, (E)-8-(4-(dimethylamino)but-2-enoyl)-3-(m-tolyl)-3,8-diazabicyclo[3.2.1]octan-2-one]	90%
Cc1cnc(N2CC3CCC(C2=O)N3C(=O)/C=C/CN(C)C)s1 (centres unmarked) [XS190-183, (E)-8-(4-(dimethylamino)but-2-enoyl)-3-(5-methylthiazol-2-yl)-3,8-diazabicyclo[3.2.1]octan-2-one]	95%
CC(=O)N1CC2CC(C1)N2C(=O)/C=C/CN(C)C [XS190-186, (E)-1-(3-acetyl-3,6-diazabicyclo[3.1.1]heptan-6-yl)-4-(dimethylamino)but-2-en-1-one]	70%
CN(C)C/C=C/C(=O)N1C2CCC1C(=O)N(C)C2 (centres unmarked) [XS197-4, (E)-8-(4-(dimethylamino)but-2-enoyl)-3-methyl-3,8-diazabicyclo[3.2.1]octan-2-one]	75%
CC(=O)N1CCC(C(=O)N2CC3CC(C2)N3C(=O)/C=C/CN(C)C)CC1 [XS197-6, (E)-1-(3-(1-acetylpiperidine-4-carbonyl)-3,6-diazabicyclo[3.1.1]heptan-6-yl)-4-(dimethylamino)but-2-en-1-one]	22%
Cc1ccc(N2CC3CCC(C2=O)N3C(=O)/C=C/CN(C)C)[nH]1 (centres unmarked) [XS197-14, (E)-8-(4-(dimethylamino)but-2-enoyl)-3-(5-methyl-1H-pyrrol-2-yl)-3,8-diazabicyclo[3.2.1]octan-2-one]	85%
CN1CC2CCC(C1=O)N2C(=O)CCl (centres unmarked) [XS197-29, 8-(2-chloroacetyl)-3-methyl-3,8-diazabicyclo[3.2.1]octan-2-one]	75%
CN(C)C/C=C/C(=O)N1C2CC1CN(C(=O)C1CCC1)C2 [XS197-38, (E)-1-(3-(cyclobutanecarbonyl)-3,6-diazabicyclo[3.1.1]heptan-6-yl)-4-(dimethylamino)but-2-en-1-one]	43%
CC(C)c1ccc(C(=O)N2CC3CC(C2)N3C(=O)/C=C/CN(C)C)s1 [XS197-49, (E)-4-(dimethylamino)-1-(3-(5-isopropylthiophene-2-carbonyl)-3,6-diazabicyclo[3.1.1]heptan-6-yl)but-2-en-1-one]	85%
CC(C)C(=O)N1CC2CC(C1)N2C(=O)/C=C/CN(C)C [XS197-50, (E)-4-(dimethylamino)-1-(3-isobutyryl-3,6-diazabicyclo[3.1.1]heptan-6-yl)but-2-en-1-one]	8%
CN(C)C/C=C/C(=O)N1C2CCC1C(=O)N(C1CCC1)C2 (centres unmarked) [XS197-70, (E)-3-cyclobutyl-8-(4-(dimethylamino)but-2-enoyl)-3,8-diazabicyclo[3.2.1]octan-2-one]	75%
CC(=O)N1CCC(c2ccc(C(=O)N3CC4CC(C3)N4C(=O)/C=C/CN(C)C)s2)C1 (centres unmarked) [XS197-71, (E)-1-(3-(5-(1-acetylpyrrolidin-3-yl)thiophene-2-carbonyl)-3,6-diazabicyclo[3.1.1]heptan-6-yl)-4-(dimethylamino)but-2-en-1-one]	78%
CC(=O)N1CCC(c2ccc(C(=O)N3CC4CC(C3)N4C(=O)/C=C/CN(C)C)s2)CC1 [XS197-72, (E)-1-(3-(5-(1-acetylpiperidin-4-yl)thiophene-2-carbonyl)-3,6-diazabicyclo[3.1.1]heptan-6-yl)-4-(dimethylamino)but-2-en-1-one]	90%
CN(C)C/C=C/C(=O)N1C2CC1CN(C(=O)c1ccc(C3CCN(C)C3)s1)C2 (centres unmarked) [XS197-73, (E)-4-(dimethylamino)-1-(3-(5-(1-methylpyrrolidin-3-yl)thiophene-2-carbonyl)-3,6-diazabicyclo[3.1.1]heptan-6-yl)but-2-en-1-one]	90%
CN(C)C/C=C/C(=O)N1C2CC1CN(C(=O)c1ccc(C3CCN(C)CC3)s1)C2 [XS197-74, (E)-4-(dimethylamino)-1-(3-(5-(1-methylpiperidin-4-yl)thiophene-2-carbonyl)-3,6-diazabicyclo[3.1.1]heptan-6-yl)but-2-en-1-one]	92%
CN(C)C/C=C/C(=O)N1C2CC1CN(C(=O)C1CN(C)C1)C2 [XS197-85, (E)-4-(dimethylamino)-1-(3-(1-methylazetidine-3-carbonyl)-3,6-diazabicyclo[3.1.1]heptan-6-yl)but-2-en-1-one]	45%
COCC#Cc1ccc(C(=O)N2CC3CC(C2)N3C(=O)/C=C/CN(C)C)s1 [XS197-93, (E)-4-(dimethylamino)-1-(3-(5-(3-methoxyprop-1-yn-1-yl)thiophene-2-carbonyl)-3,6-diazabicyclo[3.1.1]heptan-6-yl)but-2-en-1-one]	80%

Reference: patent publication US20260315604A1, “OTUB1 Small-Molecule Binders and OTUB1-recruiting Deubiquitinase-targeting Chimeras (DUBTACs)” (ICAHN SCHOOL OF MEDICINE AT MOUNT SINAI, priority 2023, published 2026)
